This assay has as its target Scavenger receptor class B member 1 (Mus musculus) (UniProt Q61009). In words: activators of SR-BI-mediated HDL uptake, dose response, cell-based, ldlA[mSR-BI] CHO, DiI fluorescence, cherry-pick (AID 602191).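 Also: cell fluorescence from internalized DiI-labeled HDL after washing; 0% = median of DMSO wells and 100% = twice the DMSO signal.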 Particulars: ldlA[mSR-BI] CHO cells, 3 h, at 35 µM (top of the series).

Activity calls are given as the source filed them.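 The calls were made as follows: active = fitted curve reaches 40% activation at a concentration no higher than the top valid tested dose; inconclusive = flat fit between 30% and 70% activation, or poor fit; inactive = uptake decrease, flat fit within 30% of zero, the rest.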

Scavenger receptor class B member 1 (Mus musculus), sequence (Q61009 whole entry, looked up): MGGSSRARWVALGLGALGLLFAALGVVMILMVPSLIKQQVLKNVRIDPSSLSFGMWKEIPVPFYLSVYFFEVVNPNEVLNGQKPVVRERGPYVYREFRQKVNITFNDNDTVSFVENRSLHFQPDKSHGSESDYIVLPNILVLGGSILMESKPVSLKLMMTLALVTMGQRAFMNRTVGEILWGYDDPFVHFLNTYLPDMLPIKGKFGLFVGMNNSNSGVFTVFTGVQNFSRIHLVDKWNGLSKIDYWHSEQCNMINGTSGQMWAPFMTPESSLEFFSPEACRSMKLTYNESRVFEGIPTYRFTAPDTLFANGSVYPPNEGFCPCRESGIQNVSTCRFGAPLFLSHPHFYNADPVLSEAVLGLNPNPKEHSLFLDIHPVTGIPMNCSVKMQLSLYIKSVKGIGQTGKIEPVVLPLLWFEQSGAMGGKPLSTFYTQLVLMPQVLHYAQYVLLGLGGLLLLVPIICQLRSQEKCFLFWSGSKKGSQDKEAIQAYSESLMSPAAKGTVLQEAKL

With `O=C(Nc1ccc(S(=O)(=O)Nc2ccccc2F)cc1)N1CCCCC1`, the activation (HDL uptake increase) is -17.5% (inactive).
`CSc1ccc(S(=O)(=O)NCC(=O)OCC(=O)N(C)Cc2ccccc2)cc1[N+](=O)[O-]`: the activation (HDL uptake increase) was 4.31% (inactive).
On to `O=C(O)CCc1nnc(SCC(=O)Nc2cccc(C(F)(F)F)c2)[nH]c1=O`, for which the activation (HDL uptake increase) was -1.57% (inactive).
Take `CCCCCC(=O)Nc1cc(S(=O)(=O)N2CCOCC2)ccc1N1CCCCC1`: the activation (HDL uptake increase) was -0.494% (inactive).
In the case of `COc1ccc(NC(=O)CN(C)C(=O)CCC2CCCC2)cc1` it was -6.8% (inactive); in that of `CCOC(=O)[C@H]1[C@H]2COc3ccccc3[C@@H]2N2C(=O)CN(Cc3ccccc3)C(=O)[C@@]12C`, -9.27% (inactive); in that of `CCOC(=O)N1CCC(N2C(=O)c3ccccc3C2Nc2cc(OC)c(OC)c(OC)c2)CC1` (configuration not stated), 13% (inactive).
With `Cc1ccc(S(=O)(=O)c2cc(OC(=O)c3ccco3)ccc2OC(=O)c2ccco2)cc1`, the activation (HDL uptake increase) was -6.59% (inactive).
In the case of `COC(=O)[C@@H]1C[C@@]2(O)[C@H](O)[C@H](O)[C@H](O)C[C@H]2N1Cc1cccc2ccccc12` it was 8.8% (inactive); in that of `COc1ccc2c(c1OC)C(=O)OC2CC(=O)O` (configuration not stated), 3.81% (inactive); in that of `CCN(CC(=O)Nc1c(F)cccc1F)C(=O)CCCc1nc2ccccc2c(=O)[nH]1`, -5.94% (inactive).
For the molecule `COC(=O)[C@@]12CCCCN1[C@H](c1ccc(-c3ccc(C(C)=O)cc3)c(OC)c1)[C@@H]1C(=O)N(C)C(=O)[C@@H]12`, the activation (HDL uptake increase) was -14% (inactive).
In the case of `CCOc1ccc(CN2CCNC(=O)C2CC(=O)NCCCOc2cccnc2)cc1` (configuration not stated) it was -10.4% (inactive); in that of `COc1ccc(OC)c(NC(=O)c2c(NC(=O)CCC(=O)O)sc3c2CCCCC3)c1`, -20.2% (inactive).
Take `O=C(NNC(=S)Nc1cccc2ccccc12)c1cccc(Br)c1`: the activation (HDL uptake increase) was -30.7% (inactive).
On to `Cc1ccc(NC(=O)COC(=O)Cn2ccc(=O)[nH]c2=O)cc1C`, for which the activation (HDL uptake increase) is -10.8% (inactive).
In the case of `C/C=C(\C)C(=O)OC1CC(C)(C)C[C@H]2C3=CC[C@@H]4[C@@]5(C)CCC(O[C@@H]6O[C@@H](C(=O)O)[C@@H](O)C(O[C@@H]7OC[C@H](O)[C@@H](O)[C@@H]7O[C@@H]7OC(CO)C(O)[C@@H](O)[C@@H]7O)C6O[C@@H]6OC(CO)C(O)C(O)C6O)[C@@](C)(CO)[C@@H]5CC[C@]4(C)[C@]3(C)CC(O)[C@@]12CO` (some centres not stated) it was -2.08% (inactive); in that of `COc1ccc2c(c1)C(C)(CCN)C(=O)N2C` (configuration not stated), -0.472% (inactive); in that of `CCN(CC)CCCNC(CC(=O)Nc1cccc([N+](=O)[O-])c1)C(=O)O` (configuration not stated), -2.51% (inactive).
As to `O=C(COC(=O)c1ccc[nH]c1=O)Nc1cc(S(=O)(=O)N2CCCCCC2)ccc1Cl`, the activation (HDL uptake increase) is -9.61% (inactive).
As for `Cc1cccc(CCNS(=O)(=O)c2ccc3c(c2)NC(=O)CO3)c1`, the activation (HDL uptake increase) was 11.6% (inactive).
Regarding `O=C(COc1ccccc1Cc1ccccc1)Nc1cccnc1`, the activation (HDL uptake increase) is -14.9% (inactive).
With `Cc1c(CC(=O)O)c(=O)oc2cc(OCc3ccc(F)cc3Cl)ccc12`, the activation (HDL uptake increase) is 10.2% (inactive).
As for `O=C(CC1C(=O)NCCN1Cc1ccc(Cl)c(F)c1)NC1CCCCC1` (configuration not stated), the activation (HDL uptake increase) was -11.9% (inactive).
Turning to `COc1ccccc1CNC(=O)COC(=O)CSc1ccc(C)c(C)c1`, the activation (HDL uptake increase) was -0.519% (inactive).
In the case of `CN1OC[C@@H]2CN[C@H](c3cccc(-c4cc(Cl)cc(Cl)c4)c3)C[C@@H]21` it was 5.62% (inactive); in that of `O=C(COC(=O)c1ccco1)c1ccc(S(=O)(=O)N2CCCCC2)cc1`, -16.4% (inactive).

The values are drawn from PubChem BioAssay AID602191 (Broad Institute, 2012).
